# Reference: patent publication US4851338A, “Method for diagnosing the presence of bacteria” (Biocarb AB, priority 1982, dated 1989)
# Key:
# [1] = system: haemagglutination between GRBC and Bordetella pertussis bacteria or fimbriae thereof; experiment: Inhibition of haemagglutination of goose erythrocytes (GRBC) with Bordetella pertussis; assay type: cell-based; conditions: for minimal effective concentration: Bordetella pertussis, Erythrocyte, 4 h, read-out: Minimum inhibitory concentration
# Protocol: In the tests bacteria of the type Bordetella pertussis newly sampled from an individual suffering from whooping cough were used. The bacteria were cultivated on CFA-agar at +37° C. for 18 hours. The bacterial growth was slurried in PBS, pH 7.2 to a density of 1×10^10 bacteria/ml. Fimbriae from the bacterium were obtained in the following manner:
# The bacteria were cultivated on Roux flasks with CFA-agar. After incubation at +37° for 24 hours the bacteria were harvested by adding 10 ml PBS/flask and sterile glass balls. The flasks were shaken and the bacterial suspension removed. The bacteria were pelletized by centrifugation (3000×g, +4°, 30 min.). The supernatant was removed by suction. The bacteria were resuspended in 10 ml PBS and the suspension was treated in a Waring blendor 2 x 20 seconds. The suspension was centrifuged (5000×g, +4°, 30 min.) to pelletize the bacteria. The supernatant containing fimbriae was removed by suction. The bacterial pellet is resuspended, treated in a Waring blender and after centrifugation the supernatant is again recovered. The two supernatants are pooled and ammonium sulphate is added to a concentration of 30 %. After stirring the supernatants are allowed to stand at +4° C. for 18 hours, centrifugation then taking place at 5000 ×g. The supernatant was separated and the precipitation was dialyzed against PBS. The solubilized fimbriae fraction was precipitated with ammonium sulphate once more and dialyzed.
# Haemagglutination is performed using erythrocytes from geese (GRBC) suspended to a concentration of 3% v/w in PBS. The agglutination tests were carried out so that 50 μl GRBC were mixed with 2-step dilution of antigen 50 μl bacterial suspension or 50 μl fimbriae suspension and 50 μl PBS in microtitre plates. The plates were sealed with Parafilm and incubated at […] for 4 hours and were then recorded. The last well wherein agglutination could be read by the eye is considered as 1 haemagglutinating unit (1 HU).
# In the inhibition experiments there were added instead of PBS 50 μl of an oligosaccharide solution, the inhibiting capacity was studied. […]
# [2] = system: haemagglutination between sheep erythrocytes and S. saprophyticus bacteria (Mc 2 and Mc 194); experiment: Inhibition of haemagglutination of sheep erythrocytes with Staphylococcus saprophyticus; assay type: cell-based; conditions: for minimal effective concentration: Staphylococcus saprophyticus, Erythrocyte, read-out: Minimum inhibitory con.
# Protocol: In the tests the bacteria S. saprophyticus strains, both isolated from urine from patents having urinary tract infection, were used. The bacteria were cultivated in tryptone broth over night, pelletized by means of centrifugation and washed twice with PBS, pH 7.2. Haemagglutination was performed using erythrocytes from sheep obtained from sheep blood and washed twice with 0.85 % saline.
# In the haemagglutination-indication experiments microtitre plates (Limbo Sc. Comp. Inc) were used. 25 μl of bacterial suspension were titrated in PBS by two-step titre steps, 25 μl of 1% erythrocyte suspension being then added. The haemagglutination titre was determined after incubation of the plates for 2-4 hours in room temperature.
# In the inhibition experiments serial dilutions of the relevant inhibitor (50 μl/well) and 25 μl of bacterial suspension diluted to contain 2 HU haemagglutinating units of bacteria were used. The plates were incubated for 30 minutes at 37° C., 25 μl of the erythrocyte suspension being then added to each well.
# [3] = system: NK-cells activity (lymphocytes) against K-562 cells; experiment: Inhibition of NK-cells activity (chromium release cytotoxicity of lymphocytes against K-562); assay type: cell-based, human; conditions: for % specific cytotoxicity: ratio 20:1; for cytolytic effect after preincubation with the oligosaccharides: in concentrations down to 0.3 mg/ml
# Protocol: Lymphocytes isolated from peripheral blood drained from normal donors have the ability of exerting a cytotoxic, (i.e. cell killing activity against certain types of cells in culture. In the instant example there is used a human leukemia cell line called K-562 as a target cell for such cytolytic activity.
# Method: K-562 cells intracellularly labelled with radioactive chromium are incubated with effector cells (lymphocytes) for 4 hours at 37° C. The cytotoxic effect is measured as the quantity of isotope released in relation to remaining isotope in the target cells. For details see Malmstrom, P., Jonsson, Å, and Sjogren, H.O. "Countercurrent distribution of lymphocytes from human peripheral blood in an aqueous two-phase system. II. Separation into subsets of lymphocytes with distinctive functions". Cell Immunol. 53:51-64, 1980. For studying inhibiting substances effector cells (6×10^6 cells/ml) are preincubated with the respective oligosaccharides diluted in cultivating medium for half an hour at 37° C. After washing with centrifugation the effector cells are transferred directly to the target cells.
# S. saprophyticus = experiment: Removal of S. saprophyticus from an infected surface (disinfection); design: species or system Staphylococcus saprophyticus; conditions: 0.1 percent by weight aqueous solution, cotton pad
# Protocol: A 0.1 percent by weight aqueous solution of the compound β-D-Galp-(1-4)-D-GNAc is prepared and applied by using a cotton pad on a surface infected by S. saprophyticus.
# [4] = system: adhesion of S. saprophyticus to urinary epithelial cells; experiment: Inhibition of adherence of S. saprophyticus to urinary epithelial cells; assay type: cell-based, Staphylococcus saprophyticus; conditions: Staphylococcus saprophyticus, Epithelial cell, 0.75 h, read-out: reduction of the number of adhering bacteria
# Protocol: Cells from urinary epithelium were suspended in cell cultivation medium RPMI 1640 (Flow Ltd) to a concentration of 10^5 cells/ml.
# Microorganisms of the type S. saprophyticus were suspended in RPMI 1640 to a concentration of 10^9 bacteria/ml. Oligosaccharides which were tested for their ability of preventing adhesion of S. saprophyticus to urinary epithelial cells were dissolved in RPMI 1640 to a concentration of 5 mg/ml. In the experiments 1 ml of the oligosaccharide solution was incubated with 0.1 ml bacterial suspension at 37° C. for 30 minutes. Urinary epithelial cells were incubated with the bacterial suspension incubated in advance as described above with oligosaccharide solution for 45 minutes at 37° C. As a control there was used a bacterial suspension preincubated with 1 ml RPMI 1640.
# Incubated samples were filtrated through a 12μ filter and washed 3 times with PBS. The filter was pressed against microscope slides for a few seconds, the slides being then fixed in methanol for 10 minutes. The slides were dried in air and coloured with acridine orange for 2 minutes. The slides were washed, dried in air and studies in fluorescence microscope. The number of bacteria per cell was counted. In each experiment 50 cells were counted.
# [5] = 0.3 mg/ml oligosaccharide, experiment 1 (without inhibitor 22.3)
# [6] = 0.3 mg/ml oligosaccharide, experiment 2 (without inhibitor 32.0)
# [7] = 1 mg/ml oligosaccharide, experiment 1 (without inhibitor 22.3)
# [8] = 1 mg/ml oligosaccharide, experiment 2 (without inhibitor 32.0)
# [9] = 3 mg/ml oligosaccharide, experiment 1 (without inhibitor 22.3)
# [10] = 3 mg/ml oligosaccharide, experiment 2 (without inhibitor 32.0)
compound,measurement,setting,value
CC(=O)N[C@H]1[C@H](O[C@@H]2[C@@H](OC[C@H]3O[C@@H](O[C@H]4[C@H](O)[C@@H](NC(C)=O)C(O)O[C@@H]4CO)[C@@H](O)[C@@H](O[C@H]4O[C@H](CO)[C@@H](O)[C@H](O)[C@@H]4O[C@@H]4O[C@H](CO)[C@@H](O[C@@H]5O[C@H](CO)[C@H](O)[C@H](O)[C@H]5O)[C@H](O)[C@H]4NC(C)=O)[C@@H]3O)O[C@H](CO)[C@@H](O)[C@@H]2O)O[C@H](CO)[C@@H](O[C@@H]2O[C@H](CO)[C@H](O)[C@H](O)[C@H]2O)[C@@H]1O (stereo partly shown) [drawing 7],minimal effective concentration,[1],175 µg/mL
Asialofetuin,Minimum inhibitory con.,"[2]; Inhibition of haemagglutination, S. saprophyticus Mc 2 and Mc 194, 2 HU bacteria",125 µg/mL
same,Minimum inhibitory concentration,"[1]; Inhibition of haemagglutination, 3% GRBC, 2-4 HU bacteria or fimbriae, +44° C., 4 hours",150 µg/mL
same,% specific cytotoxicity,[3]; [5],10%
same,% specific cytotoxicity,[3]; [6],15%
same,% specific cytotoxicity,[3]; [7],7.0%
same,% specific cytotoxicity,[3]; [8],5.0%
same,% specific cytotoxicity,[3]; [9],1.5%
same,% specific cytotoxicity,[3]; [10],1.0%
same,cytolytic effect after preincubation with the oligosaccharides,[3],inhibited
CC(=O)N[C@H]1C(O)O[C@H](CO)[C@@H](O[C@@H]2O[C@H](CO)[C@H](O)[C@H](O)[C@H]2O)[C@@H]1O (stereo partly drawn) [β-Galp-(1-4)-GNAc],removal of the bacterium from the surface,S. saprophyticus,effective removal of the bacterium from the surface
same,minimal effective concentration,[2],300 µg/mL
same,inhibition at 5000 µg/mL,[4],~85%
"CC(=O)N[C@H]1[C@H](O[C@@H]2[C@@H](OC[C@H]3O[C@@H](O[C@H]4[C@H](O)[C@@H](NC(C)=O)C(O)O[C@@H]4CO)[C@@H](O)[C@@H](O)[C@@H]3O)O[C@H](CO)[C@@H](O)[C@@H]2O)O[C@H](CO)[C@@H](O[C@@H]2O[C@H](CO)[C@H](O)[C@H](O)[C@H]2O)[C@@H]1O (stereo partly drawn) [GM1 -penta, β-Galp-(1-4)-β-GNAcp-(1-2)-α-Manp-(1-6)-β-Manp-(1-4)-GNAc]",minimal effective concentration,[2],250 µg/mL
same,minimal effective concentration,[1],675 µg/mL
same,% specific cytotoxicity,[3]; [5],16.8%
same,% specific cytotoxicity,[3]; [6],13.9%
same,% specific cytotoxicity,[3]; [7],6.5%
same,% specific cytotoxicity,[3]; [8],2.7%
same,% specific cytotoxicity,[3]; [9],-1.4%
same,% specific cytotoxicity,[3]; [10],0.0%
same,cytolytic effect after preincubation with the oligosaccharides,[3],inhibited
